Non-standard residues stand in square brackets, D forms with d. pGlu = O=C1CC[C@@H](C(=O)O)N1

Holding throughout (format): in vivo, human
Test [1] deals with ordinary type of headache. Kind of test: Example 11: analgesic effect on headache, topical. Particulars: 1% (w/v) in EP73, topical. The text has this: A subject, developed an ordinary type of headache in the early afternoon. Such headaches usually would persist for several hours, being relieved incompletely by treatment with oral drugs, such as ibuprofen and/or acetaminophen. In this instance, they topically applied an anhydrous composition containing 1% (w/v) N-Ac-Tyr-Pro-Phe-Phe-NH2(SEQ ID NO: 23) in EP73 to the frontal and temporal areas.

A further test deals with severe migraine. The test can be described thus: Example 13: analgesic effect on chronic migraine headache, topical. Particulars: 1% (w/v) in WEP442, topical. The source says: One late afternoon, the subject developed severe pain in those areas, accompanied by feelings of vertigo and nausea. The subject topically applied a composition containing 1% (w/v) N-Ac-Tyr-Pro-Phe-Phe-NH2, (SEQ ID NO: 23) in WEP442 to the entire occipital scalp, including the peri-auricular areas.

The test system of test [2] is psoriatic arthritis of fingers. The test can be described thus: Example 19: analgesic effect on psoriatic arthritis of fingers, topical. As for the experimental part:
A subject had extensive plaque psoriasis and painful arthritis of the interphalangeal joints of both index fingers, left thumb and left 5th finger. The pain was compromising their work performance as an esthetician. […] Pain relief lasted for about 6 hours.

The test system of test [3] is arthritic pain in upper back. The test can be described thus: Example 20: analgesic effect on arthritic pain of upper back, topical. As for the experimental part: A subject had arthritic pain in their upper back and associated paresthesia of their fingers, described as feelings of tingling and “pins and needles”. These symptoms had been present for about 1 year. […] Pain relief lasted for 10-12 hours. […] Repeated applications for 10-12 days gave the same results.

Test [4] concerns very severe headaches with nausea and vomiting. The test can be described thus: Example 24: analgesic effect on severe headaches, topical. The source says:
A subject had very severe headaches and associated nausea and vomiting, which occurred 1-2 times weekly. […] Over this interval, the frequency of headaches decreased to every 7-10 days, and the intensity of pain at the onset of each episode was diminished.

The test system of test [5] is dental pain after filling. The test can be described thus: Example 27: analgesic effect on dental pain, applied to tooth and gum. As to the method: A subject, experienced substantial pain in an upper left retro-molar that started 3 hours after having a dental filling procedure done on the tooth. The pain became more intense over the ensuing hours, at which time they applied to the tooth and gum using a cotton tipped applicator a composition containing 1% (w/v) of N-Ac-Tyr-Pro-Phe-Phe-NH2 (SEQ ID NO: 23) in WEP442. […] Re-application of the composition provided the same relief for the same duration.

In test [6] the test system is bursitis of the right elbow. Kind of test: Example 36: analgesic effect on pain of elbow bursitis, topical. The text has this:
A subject had painful bursitis of the right elbow that impaired their performance as a golfer. […] They played golf later the same day and experienced no bursitis pain during the game.

The next test concerns bruised finger. The test can be described thus: Example 37: analgesic effect on bruised finger, topical. The note with it: 1% (w/v) in WEP442, topical. The source says:
A subject, severely bruised their left 5th finger while trying to close a basement window in their house. The pain was intense, and associated with subcutaneous hemorrhage.

The subject of the next test is chronic knee pain. The test can be described thus: Example 46: analgesic effect on chronic knee pain from post-trauma, topical. Particulars: 1% (w/v) in WEP442, topical. The text has this:
Onset of pain occurred in adulthood […], worsening to a level that compromised their performance as a hospital nurse.

For test [7], the system named is pain in the muscles of the neck. Kind of test: Example 57: analgesic effect on stress pain in muscles of the neck, topical. The note with it: 0.6% (w/v) in WEP442, topical. As for the experimental part:
A farmer suffered substantial pain in the muscles of their neck the day after ploughing a field for several hours. During that time, they had almost constantly strained their neck muscles looking backward to monitor the performance of the plough behind. The pain was such that it disabled them from turning their head even slightly. […] Reapplication of the solution at that time again relieved the pain for another 4 hours. With repeated applications, they were able to perform usual farm maintenance work for the entire day. After a night's rest, the pain subsided spontaneously.

The subject of another test is headache. The test can be described thus: Example 65: analgesic effect on headache, topical. The note with it: 0.6% (w/v) in WEP442, topical. The source says: Several days after the incident causing the injury, they developed a bothersome headache, concentrated to the temporal areas.
Test [8] has as its system chronic foot pain and neck pain. Kind of test: Example 67: analgesic effect on pain in feet and neck with plaque psoriasis, topical. Particulars: 0.5% (w/v) in WEP442, topical. The source says:
A person with plaque psoriasis since their early teenage years had chronic foot pain for the past 10-15 years and neck pain for the past several years. The latter had been associated with, and aggravated by occupationally keeping their neck to one side as they held a phone against their head. […] Such topical applications provided relief for over one month when used.

Test [9] concerns painful arthritis of hands. Kind of test: Example 76: analgesic effect on arthritis pain of the hands, topical. Particulars: 0.5% (w/v) in WEP442, topical; before about 20 minutes. As for the experimental part:
A subject, and a veteran guitar player, was able to play their instrument in previous years for about an hour in group session performances. […] The subject reported that topical application to their hands of a composition containing 0.5% (w/v) of N-Pg-Tyr-Pro-Phe-Phe-NH2 (SEQ ID NO: 44) in WEP442 enabled them to play their guitar for 1 hour pain free. They also noted that the quality of their performance had improved.

In another test the test system is migraine. The test can be described thus: Example 80: analgesic effect on pain and nausea from migraine headache, topical. Particulars: 0.5% (w/v) in WEP442, topical at onset of symptoms. The source says: A subject with a history of recurrent attacks of migraine, was provided a solution composition containing 0.5% (w/v) of N-Pg-Tyr-Pro-Phe-Phe-NH2 (SEQ ID NO: 44) in WEP442 and a solution composition containing 0.5% (w/v) of N-Ac-Tyr-Pro-Phe-Phe-NHNH2 (SEQ ID NO: 31) in WEP442. […] Sensations of nausea that might have lingered went away after several minutes following a second topical application.

Take `CC(=O)N[C@@H](Cc1ccc(O)cc1)C(=O)N1CCC[C@H]1C(=O)N[C@@H](Cc1ccccc1)C(=O)N[C@@H](Cc1ccccc1)C(N)=O` [N-Ac-Tyr-Pro-Phe-Phe-NH2]: the “duration of headache alleviation” value in test [1] was 18 h. The pain relief entry is “headache pain disappeared completely” in [1]; “all pain and other symptoms disappeared” in the test with severe migraine; “all arthritic pain of the finger was gone” in [2] (1% (w/v) in WEP442, topical each day for one month); “relieved the upper back pain completely” in test [3] (1% (w/v) in WEP442, daily topical to upper back); “completely relieve pain and any associated symptoms” in test [4] (1% (w/v) in WEP442, topical at onset of symptoms); “pain ceased completely” in test [5] (1% (w/v) in WEP442, applied to tooth and gum). For the same compound, the pain relief entry was “complete loss of pain” in test [6] (0.8% (w/v) in WEP442, topical); “complete relief of pain” with bruised finger; “complete absence of pain” in the test on chronic knee pain. The “time to pain relief” value in test [1] was “Within minutes”; in the test with severe migraine, at most 5 min; in test [2] (1% (w/v) in WEP442, topical) it was at most 30 s; in test [3] (1% (w/v) in WEP442, topical) it was 3 to 4 min; in test [4] (1% (w/v) in WEP442, topical), 3 to 4 min; in test [5] (1% (w/v) in WEP442), at most 1 min. For the same compound, the “time to pain relief” value in [6] (0.8% (w/v) in WEP442, topical) was at most 2 min; with bruised finger it was at most 15 s. The recurrence result with severe migraine is listed as “no recurrence of any migraine headache during the next week”. In addition, the “duration of pain relief” value was “about 6 hours” in test [2] (1% (w/v) in WEP442, topical); 10 to 12 h in test [3] (1% (w/v) in WEP442, topical); “about 3 hours” in test [5] (1% (w/v) in WEP442); “Pain did not recur until the next morning” in test [6] (0.8% (w/v) in WEP442, topical in the afternoon). Also, the “paresthesia of the fingers” value in [3] (1% (w/v) in WEP442, topical to upper back) was “persisted without any discernible change”. Also, the “frequency of headaches (interval between headaches)” value in [4] (1% (w/v) in WEP442, repeated uses over 3 months, before: 1-2 times weekly) was 7 to 10 days. Besides, in the test with chronic knee pain, the “duration of absence of pain” value worked out at 8 h.

In the case of “N-Pg-Tyr-Pro-Phe-Phe-NH2 ([pGlu]YPFF-NH2; SMILES NC(=O)[C@H](Cc1ccccc1)NC(=O)[C@H](Cc1ccccc1)NC(=O)[C@@H]1CCCN1C(=O)[C@H](Cc1ccc(O)cc1)NC(=O)[C@@H]1CCC(=O)N1)”, the “duration of pain relief” value is “about 4 hours” in test [7] and 8 to 10 h in [8]. The pain relief result in [7] is “almost completely relieved”; in test [8] it was “almost complete relief of pain”; in the test with migraine it was “complete relief of pain”. In addition, the headache relief entry in the test with headache is listed as “almost immediate, complete relief of the headache”. Further, in [9], the “pain free guitar playing time” value was determined as 1 h.
